Experimental data published in PMC7849011, “Defining the Antimalarial Activity of Cipargamin in Healthy Volunteers Experimentally Infected with Blood-Stage Plasmodium falciparum” (Antimicrobial Agents and Chemotherapy, 2021).
Like-named read-outs stand apart in the source and are kept apart here.

What was measured:
P. falciparum = conditions: IBSM, cited from earlier work
P. falciparum 3D7 = assay: Induced blood-stage malaria (IBSM) volunteer infection study: parasitemia by 18S rRNA qPCR; assay type: in vivo, Plasmodium falciparum
From the text: A single cohort of eight subjects was inoculated intravenously with P. falciparum 3D7-infected human erythrocytes (approximately 1,800 viable parasites) as previously described ([24]). Parasite growth was monitored by collecting blood samples and performing quantitative PCR (qPCR) targeting the gene encoding P. falciparum 18S rRNA ([25]). […] The dose of cipargamin selected was predicted to be subtherapeutic based on preclinical modeling ([7]) and pharmacokinetic data obtained in previous clinical studies ([8]) and thus chosen to facilitate modeling to estimate the pharmacokinetic/pharmacodynamic relationship. To monitor total parasitemia, blood samples were collected for 18S rRNA qPCR before inoculation, on day 3, twice daily on days 4 to 6, pretreatment on day 7, and 4, 8, 12, 16, 24, 30, and 36 h posttreatment, twice daily from day 9 to day 11, and every 1 to 3 days until day 35. Blood samples for gametocytemia measurements were collected on day 11, every 1 to 3 days between day 15 and day 29, and on day 35. […] Analyses were performed in R version 3.3.0. The PRR and parasite clearance half-life were estimated using the slope of the optimal fit for the log-linear relationship of the parasitemia decay as described previously ([27]).

## OC(c1cc(C(F)(F)F)nc2c(C(F)(F)F)cccc12)C1CCCCN1 (centres unmarked) [mefloquine]
P. falciparum; 10 mg/kg single dose
  parasite clearance half-life: 6.2 h

## Clc1ccc2c(N3CCN(CCCN4CCN(c5ccnc6cc(Cl)ccc56)CC4)CC3)ccnc2c1 [piperaquine, reference compound]
P. falciparum 3D7; 960 mg single oral dose after regrowth post-cipargamin
  clearance of asexual parasite regrowth: successful in clearing asexual parasite regrowth
P. falciparum 3D7; after 960 mg piperaquine, 8 subjects
  second parasite regrowth, number of subjects: 3 subjects
P. falciparum; 640 mg single dose
  parasite clearance half-life: 5.22 h

## Cc1cc(Nc2ccc(S(F)(F)(F)(F)F)cc2)n2nc(C(C)(F)F)nc2n1 [DSM265]
P. falciparum; 150 mg single dose
  parasite clearance half-life: 9.4 h
